According to ChEMBL document CHEMBL4340540, “3-Substituted Quinolines as RORγt Inverse Agonists” (Bioorg Med Chem Lett, 2019):
Values after ≈ are worked out from the molar mass of the structure shown.

Key:
[1] = Equilibrium aqueous solubility of the compound at pH 7; type: physicochemical
[2] = Equilibrium aqueous solubility of the compound at pH 2; type: physicochemical
[3] = target: T1, Nuclear receptor ROR-gamma (Homo sapiens, UniProt P51449)
T1 sequence (P51449 whole entry): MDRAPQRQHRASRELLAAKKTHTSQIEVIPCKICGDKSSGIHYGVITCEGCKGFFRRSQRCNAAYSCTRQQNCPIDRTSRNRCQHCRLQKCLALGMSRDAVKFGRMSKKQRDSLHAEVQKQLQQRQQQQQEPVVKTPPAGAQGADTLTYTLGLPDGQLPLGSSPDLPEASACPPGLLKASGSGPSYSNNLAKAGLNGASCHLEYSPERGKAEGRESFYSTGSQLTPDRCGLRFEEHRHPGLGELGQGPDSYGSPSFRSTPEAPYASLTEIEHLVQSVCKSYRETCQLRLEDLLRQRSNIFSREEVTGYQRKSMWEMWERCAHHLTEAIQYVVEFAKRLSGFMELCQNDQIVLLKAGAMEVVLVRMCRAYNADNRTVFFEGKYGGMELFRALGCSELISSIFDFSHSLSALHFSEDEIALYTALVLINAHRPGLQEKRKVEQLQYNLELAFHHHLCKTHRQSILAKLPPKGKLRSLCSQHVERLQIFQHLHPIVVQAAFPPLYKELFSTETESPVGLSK

[4] = in vitro; conditions: rat, liver microsomes
Description: Extraction ratio in rat liver microsomes

[5] = in vitro; conditions: human, liver microsomes
Description: Extraction ratio in human liver microsomes

[6] = target: T2, Nuclear receptor ROR-gamma (Homo sapiens) (UniProt P51449); assay: Inverse agonist activity at GAL4-DNA binding domain-fused human full length RORgammat expressed in pGL4.31 transfected HEK293T cells assessed as inhibition of RORGgammat driven transcriptional activity at 2 uM after 24 hrs by luciferase reporter gene assay relative to control; type: cell-based
T2 sequence (whole entry): T1 sequence (P51449 whole entry)

[7] = target: T2, Nuclear receptor ROR-gamma (Homo sapiens); assay: Inverse agonist activity at GAL4-DNA binding domain-fused human RORgammat LBD expressed in pGL4.31 transfected HEK293T cells assessed as inhibition of RORGgammat driven transcriptional activity at 1 uM after 24 hrs by dual-luciferase reporter gene assay relative to control; type: cell-based
[8] = target: T2, Nuclear receptor ROR-gamma (Homo sapiens); assay: Inverse agonist activity at GAL4-DNA binding domain-fused human full length RORgammat expressed in pGL4.31 transfected HEK293T cells assessed as inhibition of RORGgammat driven transcriptional activity at 3 uM after 24 hrs by dual-luciferase reporter gene assay relative to control; type: cell-based
[9] = Clearance in rat at 1 mg/kg, iv; type: ADME, organism-based; conditions: in vivo
[10] = Oral bioavailability in rat at 5 mg/kg; conditions: in vivo
[11] = Half life in rat at 1 mg/kg, iv; type: ADME, organism-based; conditions: in vivo
[12] = Cmax in rat at 5 mg/kg, po; type: ADME, organism-based; parameters: dose 5 mg/kg, route oral; conditions: in vivo
[13] = Volume of distribution at steady state in rat at 1 mg/kg, iv; type: ADME, organism-based; conditions: in vivo, read-out: Vdss
[14] = Half life in rat at 5 mg/kg, po; type: ADME, organism-based; conditions: in vivo

Compound	solubility thermodynamic [1] [µM]	solubility thermodynamic [2] [µM]	also measured
COc1nc2ccc(C(O)(c3ccc(C)nc3C)c3cnnn3C)cc2c(Cl)c1CN1CCC(n2cccn2)CC1 (stereo not given)	30 (≈ 17.2 µg/mL)	> 400	
COc1nc2ccc(C(O)(c3cnc(C)n3C)C3CCOCC3)cc2c(Cl)c1CN1CCC(C(F)(F)F)CC1 (stereo not given)	283 (≈ 160 µg/mL)	> 400	
COc1nc2ccc(C(O)(c3ccc(C)nc3C)c3cnnn3C)cc2c(Cl)c1OC1CCOCC1 (stereo not given)	41 (≈ 20.9 µg/mL)	> 400	
COc1nc2ccc(C(O)(c3ccc(C)nc3C)c3cnnn3C)cc2c(Cl)c1C1CCCC1 (stereo not given)	< 4	273 (≈ 130 µg/mL)	
COc1nc2ccc(C(O)(c3ccc(C)nc3C)c3cnnn3C)cc2c(Cl)c1OCC1CC1 (stereo not given)	< 1	> 400	
COc1nc2ccc(C(O)(c3ccc(C)nc3C)c3cnnn3C)cc2c(Cl)c1CN1CCC(F)CC1 (stereo not given)	100 (≈ 52.5 µg/mL)	> 400	
COc1nc2ccc(C(O)(c3ccc(C)nc3C)c3cnnn3C)cc2c(Cl)c1C (stereo not given)	< 4	> 400	
COc1nc2ccc(C(O)(c3ccc(C)nc3C)c3cnnn3C)cc2c(Cl)c1CC1CCS(=O)(=O)CC1 (stereo not given)	13 (≈ 7.23 µg/mL)	387 (≈ 215 µg/mL)	IC50 [3]: 280 nM; hepatic extraction ratio [4]: 0.7; hepatic extraction ratio [5]: 0.9
COc1nc2ccc(C(O)(c3ccc(C)nc3C)c3cnnn3C)cc2c(Cl)c1CN1CCC(C(F)(F)F)CC1 (stereo not given)	< 1	> 400	
COc1nc2ccc(C(O)(c3ccnc(C(F)(F)F)c3)c3cnnn3C)cc2c(Cl)c1CN1CCC(C(F)(F)F)CC1 (stereo not given)	< 4	> 400	inhibition [6]: 100%
COc1nc2ccc(C(O)(c3cnc(C)n3C)c3cnc(C)n3C)cc2c(Cl)c1CN1CCC(C(F)(F)F)CC1	4 to 7 (≈ 2.31 to 4.04 µg/mL)	> 400	
COc1nc2ccc(C(O)(c3ccc(C)nc3C)c3cnnn3C)cc2c(Cl)c1CN1CCC(F)(F)CC1 (stereo not given)	< 4	> 400	
COc1nc2ccc(C(O)(c3ccc(C)nc3C)c3cnnn3C)cc2c(Cl)c1CC(F)(F)F (stereo not given)	< 4	395 (≈ 194 µg/mL)	
COc1nc2ccc(C(O)(c3ccc(C)nc3C)c3cnnn3C)cc2c(Cl)c1CC1CC1 (stereo not given)	< 1	> 400	
COc1nc2ccc(C(O)(c3ccc(C(F)(F)F)nc3)C3CN(C(C)=O)C3)cc2c(Cl)c1CN1CCC(C(F)(F)F)CC1 (stereo not given)	< 4	> 400	inhibition [6]: 94%
COc1nc2ccc(C(O)(c3ccc(C)nc3C)c3cnnn3C)cc2c(Cl)c1Cc1ccc(C(F)(F)F)cc1 (stereo not given)	< 1	202 (≈ 115 µg/mL)	inhibition [7]: 100%

Compound	solubility thermodynamic [1] [µM]	solubility thermodynamic [2] [µM]	also measured
COc1nc2ccc(C(O)(c3ccc(C)nc3C)c3cnnn3C)cc2c(Cl)c1CC(C)C (stereo not given)	< 1	> 400	
COc1nc2ccc(C(O)(c3ccc(C)nc3C)c3cnnn3C)cc2c(Cl)c1OCc1ncccn1 (stereo not given)	336 (≈ 174 µg/mL)	> 400	
COc1nc2ccc([C@](O)(c3ccnc(C(F)(F)F)c3)c3cnc(C)n3C)cc2c(Cl)c1CN1CCC(C(F)(F)F)CC1	< 4	> 400	inhibition [6]: 101%
COc1nc2ccc(C(O)(c3ccc(C)nc3C)c3cnnn3C)cc2c(Cl)c1C(=O)N1CCC(C(F)(F)F)CC1 (stereo not given)	60 (≈ 35.3 µg/mL)	> 400	IC50 [3]: 386 nM; hepatic extraction ratio [4]: 0.8; inhibition [8]: 66%; hepatic extraction ratio [5]: 0.8
COc1nc2ccc(C(O)(c3ccc(C)nc3C)c3cnnn3C)cc2c(Cl)c1OCC1CC1(F)F (stereo not given)	< 4	371 (≈ 191 µg/mL)	
COc1nc2ccc(C(O)(c3ccc(Cl)cc3)c3cncn3C)cc2c(Cl)c1Cc1ccc(-n2cccn2)cc1 (stereo not given)	< 1	< 1	clearance [9]: 11.5 mL/min/kg; bioavailability [10]: 42%; half-life [11]: 5.6 h; Cmax [12]: 262 ng/mL; Vd [13]: 4.3 L/kg; half-life [14]: 5.6 h
COc1nc2ccc(C(O)(c3ccc(C)nc3C)c3cnnn3C)cc2c(Cl)c1CC1CCC(F)(F)CC1 (stereo not given)	< 1	> 400	
COc1nc2ccc(C(O)(c3cnnn3C)c3cnc(C)n3C)cc2c(Cl)c1CN1CCC(C(F)(F)F)CC1 (stereo not given)	31 (≈ 17.5 µg/mL)	> 400	
COc1nc2ccc(C(O)(c3ccnc(C(F)(F)F)c3)c3cncn3C)cc2c(Cl)c1CN1CCC(C(F)(F)F)CC1 (stereo not given)	< 1	> 400	
COc1nc2ccc(C(O)(c3ccc(C)nc3C)c3cnnn3C)cc2c(Cl)c1CN1CC(C(F)(F)F)C1 (stereo not given)	8 (≈ 4.38 µg/mL)	> 400	
COc1nc2ccc(C(O)(c3ccc(C)nc3C)c3cnnn3C)cc2c(Cl)c1OC(C)C (stereo not given)	< 1	> 400	
COc1nc2ccc(C(O)(c3ccc(C)nc3C)c3cnnn3C)cc2c(Cl)c1OCc1nccs1 (stereo not given)	< 4	> 400	
COc1nc2ccc(C(O)(c3cc(C)nc(C)c3)c3cnnn3C)cc2c(Cl)c1CN1CCC(C(F)(F)F)CC1 (stereo not given)	< 1	> 400	
COc1nc2ccc([C@@](O)(c3ccc(C(F)(F)F)nc3)c3cncn3C)cc2c(Cl)c1CN1CCC(C(F)(F)F)CC1	< 1	> 400	clearance [9]: 7.9 mL/min/kg; bioavailability [10]: 77%; half-life [11]: 9.1 h; Cmax [12]: 553 ng/mL; Vd [13]: 5.7 L/kg; half-life [14]: 8.5 h
COc1nc2ccc(C(O)(c3cnc(C)n3C)C3CN(C(C)=O)C3)cc2c(Cl)c1CN1CCC(C(F)(F)F)CC1 (stereo not given)	> 400	> 400	
